The test system of data set [1] is AT1R. The data set is described as follows: Confocal microscopy of YFP-tagged AT1R internalization. The following applies: 50 μM; AngII. The class given is cell-based, human. On the procedure:
One day before transfection, cells were seeded in 35-mm glass-bottom dishes (MatTek Corporation) at a density of 1 × 10^5 cells per dish. For the recordings of receptor internalization, HEK293 SL cells were transfected with 2 μg of AT1R-YFP. For the recordings of β-arrestin-2 recruitment to the receptor, HEK293SL cells were transfected with 50 ng of β-arrestin2-YFP and 250 ng of Flag-AT1R or HA-B2R. Forty-eight hours post-transfection, cells were serum starved, preincubated with DMSO (0.1% final concentration) or Rasarfin (50 μM) for 30 min at 37 °C. AT1R-expressing cells were stimulated with angiotensinII (AngII; 100 nM) and B2R-expressing cells were stimulated with bradykinin (BK; 1 μM) for 30 min (receptor-YFP) or 15 min (β-arrestin2-YFP). Cells were imaged with Zeiss LSM-510 and/or LSM-710 laser scanning confocal microscope. To detect YFP, […] and BP 505–550 nm emission filter. Images (2048 × 2048) were collected using a 63x oil immersion lens.

Data set [2] deals with H-Ras (Homo sapiens, UniProt P01112). Put plainly: GST-Raf1-RBD pull-down of EGFR-mediated H-Ras activation in MDA-MB-231 cells. The following applies: 50 μM. The class given is cell-based. Further details: endogenous in cells; host or cells: MDA-MB-231. As to the method: Activation of ARF1, ARF6, Ras, and Rho were assessed by using GST pull-down assays. HEK293SL cells were transiently transfected with 3 µg AT1R-flag only (Ras and Rho) or along with 500 ng HA-ARF6 (ARF6) or HA-ARF1 (ARF1). Forty-eight hours later, the HEK293 or MDA-MB-231 cells were serum-starved for 4 h with DMEM containing 20 mM HEPES then pretreated with DMSO or Rasarfin (50 µM) for 30 min. Cells were then stimulated with 1 µM AngII or 100 ng/ml EGF for 0 and 2 min. Cells were then washed once with ice-cold PBS and lysed for 30 min at 4 °C in 300 µl of lysis buffer (pH 7.5, 50 mM Tris-HCl, 140 mM NaCl, 5 mM MgCl2, 10% glycerol (v/v), 1% Nonidet P-40 (v/v), 1 mM dithiothreitol) supplemented with protease inhibitors (1 mM phenylmethyl-sulfonyl fluoride (PMSF), 10 µg/ml leupeptin, 5 µg/ml aprotinin, 1 µg/ml pepstatin A) and phosphatase inhibitors (20 mM NaF, 0.025 mM pervanadate). The samples were cleared by centrifugation and 30 µl (cell lysates) was kept for assessing total protein contents. The remaining was transferred to fresh tubes with 20 µg of either GST, GST-GGA3-PBD, GST-Raf1-RBD or GST-Rhotekin-RBD coupled to glutathione resin and rotated for 1–2 h at 4 °C. […] ImageLab 5.2 software was used to quantify the digital blots as fold of the amount of pulled down protein over total protein. […]
H-Ras, sequence (P01112 whole entry): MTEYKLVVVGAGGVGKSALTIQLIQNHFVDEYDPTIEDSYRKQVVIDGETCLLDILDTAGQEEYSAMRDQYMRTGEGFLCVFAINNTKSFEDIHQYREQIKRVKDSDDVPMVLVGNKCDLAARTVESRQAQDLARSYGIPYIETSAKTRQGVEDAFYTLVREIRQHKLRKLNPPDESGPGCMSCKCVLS

Data set [3] deals with HEK293 cells. Particulars: Barbadin 100 µM; cited from earlier work.

“Also recorded” adds a separate entry of the source.

For the compound `CC(C)C(=O)N1CCN(c2ccc(NC(=O)c3cc4ccccc4o3)cc2Cl)CC1` [Compound 21], the “AT1R localization by microscopy” value in data set [1] was “remained trapped at the PM”. In data set [2], the “Ras activity in MDA-MB-231 cells (pull-down)” value is “inhibited”. Consider `Nn1cnc2scc(-c3ccc(Cc4ccccc4)cc3)c2c1=O` [Barbadin, reference compound], for which, in data set [3], the “toxicity to HEK293 cells (flat, cobblestone appearance retained)” value is recorded as “non-toxic to cells; also recorded: nontoxic”.

Values taken from article PMC8333425, “Discovery of a dual Ras and ARF6 inhibitor from a GPCR endocytosis screen” (Nature Communications, 2021).
